Test results as given in patent US9359311B2, “Substituted aromatic oligomers” (NEUROSCIOS GMBH, priority 2011, dated 2016).
Entries after “also recorded” stand apart in the source; their conditions may differ.

Assays:
biotinylated Aβ1-42 = target: T1, biotinylated Aβ1-42 (Homo sapiens, UniProt P05067); test: Inhibition of Abeta oligomerisation (biotinylated Aβ1-42, neutravidin plate, streptavidin-HRP); assay type: biochemical; conditions: inhibition of Aβ1-42 aggregation, approximately 12 nM Aβ1-42, PBS pH 7.4, 2% DMSO, 30 min RT
T1 construct: To assure monomerisation of biotinylated Aβ1-42 (Anaspec #23523-0.5) the peptide was thoroughly monomerised; purchased Anaspec 23523-0.5
T1 sequence (P05067 672-713 limits assumed): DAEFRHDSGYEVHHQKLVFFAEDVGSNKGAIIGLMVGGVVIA

primary chicken neurons = test: Inhibition of Abeta 1-42 toxicity on primary chicken neurons (MTT); assay type: cell-based; parameters: key: No: no effect; +: minor positive effect on cell viability in the presence of aggregated Aβ 1-42; ++: medium positive effect on cell viability in the presence of aggregated Aβ 1-42; +++: strong positive effect on cell viability in the presence of aggregated Aβ 1-42; conditions: 10 μM Aβ1-42 aggregated together with compound for 48 h
Description: One-day-old fertilized eggs are stored under appropriate conditions until start of breeding. On embryonic day 0 eggs are transferred to the breeding incubator and under turning, kept at 37.8° C. and 55% humidity until embryonic day eight. Neurons are prepared as follows: In short, embryos are transferred to a plastic dish, and decapitated. Both brain hemispheres are removed, collected and any loose tissue removed. Hemispheres are mechanically dissociated and 4.8×10^4 cells per well (96-well plates) are seeded in a volume of 160 μl.
Aβ1-42 (MW 4514.1) was obtained from American Peptide Company as a lyophilized powder. A stock solution of 340 μM Aβ1-42 was prepared in 50 mM Tris-Buffer, 150 mM NaCl, pH7.6 according to the manufacturer's instructions. After sonication, the stock solution is diluted 1:1 with the test compounds to obtain a concentration of 170, 17 and 1.7 μM. After aggregation at 4° C. for 48 h, the solutions are sonicated again prior to application to the cells. The final concentration of Aβ1-42 applied to the primary chicken neurons is 10 μM.
Aβ1-42 aggregated together with compound for 48 hrs was applied to chicken neurons at DIV4 (days in vitro) and analyzed at DIV10 (144 hrs) and all others were applied to chicken neurons at DIV6 and analysed at DIV10 (96 hrs).
Viability of cultures is determined by the MTT assay. The MTT assay allows for the measurement of the mitochondrial dehydrogenase activity which reduces yellow MTT to dark blue formazan crystals. Since this reaction is catalyzed in living cells only this assay is used for the determination of cell viability. MTT solution is added to each well in a final concentration of 0.5 mg/ml. After 2 hours the MTT containing medium is aspired. Cells are lysed in 3% SDS and the formazan crystals are dissolved in isopropanol/HCl. Optical density is measured with a plate-reader at wavelength 570 nm. Cell survival rate is expressed as a percentage of optical density (OD) relative to control cells not treated with Aβ or compound.

prion = conditions: Ref: JBC doi: 10.1074/jbc.M112.355958; cited from earlier work
[1] = test system: PHF-tau doubly-phosphorylated at Thr231 and Ser235; test: Phosphorylation of Tau in neurites crossing amyloid plaques, AT180 IHC, hAPPSL Tg mice; assay type: in vivo, mouse
Description: (§1) Vehicle: Phosphate Buffered Saline (PBS; 6.7 mM PO4, 155 mM NaCl, pH=7.3-7.5) (BioWhittaker PBS from Lonza).
Test Item (T.I.): p-FTAA and P9707_003, diluted in vehicle from stock solution in deionized water (10 mg/ml).
(§2) Tg hAPPSL: Transgenic hAPPSL mice over-expressing hAPP(751) under the control of the murine Thy-1 promoter with a C57BL/6xDBA background.
(§3) 48 hAPP Tg mice plus 4 reserves allocated to 4 different treatment groups were treated with either vehicle only (control), p-FTAA or P9707_003. As an additional control, 12 nTg littermates of the hAPPSL mice (plus 1 reserve) were treated with vehicle only. Starting at 6.5 months of age, female hAPPSL mice were treated with vehicle only, p-FTAA (dosage: 1 or 10 mg/kg/day) or P9707_003 (dosage: 10 mg/kg/day) for 90 days. The Test Items (T.I.s) were administered in Vehicle. Compound and vehicle were administered twice daily i.p. for 90 days. Tg hAPPSL mice with a C57BL/6xDBA background and corresponding nTg littermates at an age of 6.5 months (+2 weeks) were randomly assigned to the treatment groups.
Histological evaluations were performed with six randomly chosen cryo-frozen brain hemispheres of treatment groups PBS Control, p-FTAA 1 mg/kg/day, p-FTAA 10 mg/kg/day, and P9707_003 10 mg/kg/day.
15 cryo-sections per level (altogether 5 levels), each 10 μm thick (Leica CM 3050S) were sagittally cut. Brain levels were chosen according to the morphology atlas “The Mouse Brain” from Paxinos and Franklin (2nd edition). The cutting of the five levels started with a random slice, then sampling was continued uniformly and systematically, always retaining 15 slices per level in series and discarding 100 μm in between the levels.
TAU phosphorylation was visualized immunohistochemically using the AT180 antibody. Clone AT180 recognizes PHF-tau doubly-phosphorylated at Thr231 and Ser235.
For determination of amyloid depositions 5 slices (1 from each level) per brain were stained and screened. From each slice five images were captured from 5 defined areas in the brain. The order of these positions reflect the time course of plaque deposition in the APPsl model, which starts in the frontal cortex (P11) at the age of 3 months and then spreads to the medial (P12) and dorsal cortex over age. At six months of age, plaques can be found in the medial cortex (P13), from then plaque load spreads into the hippocampal formation with hot spots in the subiculum (P14) and the dentate gyrus (P15) at the age of nine months.
Mosaic images for plaque load quantification including the whole cortex and hippocampus were recorded on a Zeiss AxioImager.Z1 microscope using high aperture lenses and an AxioVision 4.8 software driven AxioCam MRm (10× lens, 1× optocoupler). Plaques for AT180 quantifcation were imaged with a 20× lens. Detail images for qualitative figures are 40× image stacks collapsed to 2D by the extended depth of field function of AxioVision software.
Descriptive statistical analysis was performed on all evaluated parameters, Kolmogorov Smirnov test were performed to test normal distribution of data. Data in graphs are represented as mean±SEM.

[2] = target: T2, Human Aβ38, Aβ40 and Aβ42 (Homo sapiens, UniProt P05067); test: Human Aβ38, Aβ40 and Aβ42 in SDS brain homogenate fraction of hAPPSL Tg mice after 90 days treatment; assay type: in vivo, mouse; conditions: twice daily i.p., p-FTAA 1 or 10 mg/kg/day, P9707_003 10 mg/kg/day
T2 construct: from tissue; host or cells: CSF and left brain hemisphere (SDS fraction) of transgenic hAPPSL mice
T2 sequence (P05067 672-713 limits assumed): as above
Description: as §1
(§4) Test item (T.I.): p-FTAA and P9707_003 diluted in vehicle from stock solution in deionized water (10 mg/ml).
as §2
(§5) Human Aβ38, Aβ40 and Aβ42 were determined in homogenates of the left brain hemispheres and in CSF samples of all Tg animals by an immunosorbent assay from Mesoscale Discovery
48 hAPP Tg mice plus 4 reserves allocated to 4 different treatment groups were treated with either vehicle only (control), p-FTAA or P9707_003. As an additional control, 12 nTg littermates of the hAPPSL mice (plus 1 reserve) were treated with vehicle only. Starting at 6.5 months of age, female hAPPSL mice were treated with vehicle only, p-FTAA (dosage: 1 or 10 mg/kg/day) or P9707_003 (dosage: 10 mg/kg/day) for 90 days. […]
(§6) In the brain homogenate SDS fraction and in CSF of each Tg mouse, human Aβ38, Aβ40 and Aβ42 levels were measured with a Aβ-kit from Mesoscale Discovery. Aβ levels were evaluated in comparison to a peptide standard as pg/mg brain (wet weight) or pg/ml CSF.
Descriptive statistical analysis was performed on all evaluated parameters. […] Group differences between all Tg groups were calculated by a parametric ANOVA followed by a Bonferroni post test.

[3] = target: T2, Human Aβ38, Aβ40 and Aβ42; test: Human Aβ38, Aβ40 and Aβ42 in CSF of hAPPSL Tg mice after 90 days treatment (immunosorbent assay); assay type: in vivo, mouse; conditions: twice daily i.p., hAPPSL Tg mice, p-FTAA 1 or 10 mg/kg/day, P9707_003 10 mg/kg/day
Description: as §1, §4, §2, §5
as §3, with “(±2” for “(+2”
as §6
Descriptive statistical analysis was performed on all evaluated parameters. All data were represented as mean±standard error of mean (SEM). Grubb's test was used to detect outliers. Normality distribution of the values was tested with Kolmogorov Smirnov normality distribution test. Group differences between all Tg groups were calculated by a parametric ANOVA followed by a Bonferroni post test.

SMILES | IC50 (biotinylated Aβ1-42) [nM] | Rescue of Abeta toxicity (MTT) (primary chicken neurons; Conc. 0.1 μM) | Rescue of Abeta toxicity (MTT) (primary chicken neurons; Conc. 1 μM) | anti-prion potential (prion) | AT180 load ([1]; 1 mg p-FTAA treatment, position 4) | AT180 load ([1]; 10 mg p-FTAA treatment, positions 4 and 5) | AT180 IR in plaques of younger history of origin (hippocampal formation, subiculum, dentate gyrus) ([1]; 90 days i.p., hAPPSL Tg mice) | aggregated Aβ38, Aβ40 and Aβ42 in SDS fraction of brain homogenate [2] | CSF Aβ levels [3] | pIC50 (biotinylated Aβ1-42)
O=C(O)CCc1ccsc1-c1ccc(-c2sc(-c3ccc(-c4cc(CCC(=O)O)c(-c5ccc(-c6sccc6CCC(=O)O)s5)s4)s3)cc2CCC(=O)O)s1 [Example 62, 3-(2-{5-[3-(2-Carboxyethyl)-5-{5-[4-(2-carboxyethyl)-5-{5-[3-(2-carboxyethyl)thiophen-2-yl]thiophen-2-yl}thiophen-2-yl]thiophen-2-yl}thiophen-2-yl]thiophen-2-yl}thiophen-3-yl)propanoic acid] | 398 | ++ | +++ | – | – | – | – | – | – | –
O=C(O)Cc1cc(-c2ccc(C(=O)O)s2)sc1-c1ccc(-c2sc(-c3ccc(C(=O)O)s3)cc2CC(=O)O)s1 [p-FTAA, reference compound] | 5010 | – | – | pronounced anti-prion potential | significantly reduced | highly significant reduction | drastically reduced | significant SDS soluble Aβ lowering effect; also recorded: reduced | reduced | –
O=C(O)Cc1cc(-c2cccs2)sc1-c1ccc(-c2sc(-c3cccs3)cc2CC(=O)O)s1 [p-HTAA, reference compound] | – | – | – | pronounced anti-prion potential | – | – | – | – | – | 5.7
